9 compounds from US12370263B2, “Cyclic dinucleotide derivative based antibody-drug conjugates” (DAIICHI SANKYO COMPANY, LIMITED, priority 2018, dated 2025) can be followed below.

Experiment [1] concerns the target T1, HisAviTEV-hSTING (139-342) human wild-type protein (Homo sapiens, UniProt Q86WV6, H232R).
T1 construct: made in house; host or cells: E. coli Rosetta 2 (DE3), co-expressed with BirA (1-321)
Briefly: Protein thermal shift assay, STING C-terminal binding domain protein. The following applies: test compound final concentration 0.5 mM.

Experiment [2] addresses T2, HisAviTEV-hSTING (139-342) human REF-mutated protein (Homo sapiens, UniProt Q86WV6).
T2 construct: made in house; host or cells: E. coli Rosetta 2 (DE3), co-expressed with BirA (1-321)
Described as above. The following applies: test compound final concentration 0.5 mM.

Experiment [3] concerns the target T3, HisAviTEV-hSTING (139-342) human AQ-mutated protein (Homo sapiens, UniProt Q86WV6, G230A/H232R/R293Q).
T3 construct: made in house; host or cells: E. coli Rosetta 2 (DE3), co-expressed with BirA (1-321)
Described as above. The following applies: test compound final concentration 0.5 mM.

Experiment [4] concerns the target T4, His-Avi-TEV-mSTING (138-341) mouse wild-type protein (Mus musculus, UniProt Q3TBT3).
T4 construct: made in house; host or cells: E. coli Rosetta 2 (DE3), co-expressed with BirA (1-321)
The description is as above. The following applies: test compound final concentration 0.5 mM. As for the experimental part:
Each of these expression strains was added to a TB medium containing 100 μg/mL ampicillin, 50 μg/mL streptomycin, and 30 μg/mL kanamycin, cultured at 37° C., then exposed to 100 μM IPTG for inducible expression, and further cultured at 16° C.
The culture solution was centrifuged, and the resulting bacterial cells were suspended in 50 mM HEPES pH 8.0, 500 mM NaCl, 20 mM imidazole, 1 mM DTT, 5% (w/v) glycerol, Complete EDTA free, and then subjected to freeze-thawing. After addition of Lysozyme and DNase I, proteins were extracted by ultrasonic disintegration, and centrifugation was performed and the resulting supernatant was collected. The supernatant obtained was purified by using an AKTA express chromatography system (GE Healthcare, IL, US) with a HisTrap FF column (GE Healthcare), and eluted with buffer (20 mM HEPES pH 7.5, 120 mM NaCl, 20% Glycerol, 0.8 mM DTT) through a Superdex 200 16/60 column (GE Healthcare). […] The protein concentrations were measured by using a NanoDrop2000 (Thermo Fisher Scientific, MA, US), and the proteins were cryopreserved at −80° C. until use.
The binding ability of each compound to the STING C-terminal binding domain proteins was evaluated by protein thermal shift assay, which uses the elevation of thermal denaturation temperature of protein as an index.
Specifically, 3 μL of a test compound (final concentration: 0.5 mM), 3 μL of SYPRO Orange Protein Gel Stain (Thermo Fisher Scientific) (final concentration: 20-fold), and 6 μL of a STING protein were mixed with use of assay buffer (20 mM Tris-HCl pH 7.5, 120 mM NaCl) in a 384-well real-time PCR plate, and mixed together with a plate shaker. With a real-time PCR system (Thermo Fisher Scientific), the temperature was increased from 25° C. to 95° C. at a rate of 0.03° C./sec, and the thermal denaturation temperature of the protein was measured by using fluorescence emitted from SYPRO Orange as an index. From the measurement acquired, Tm (the midpoint of the unfolding transition) (° C.) was determined as a temperature at which the increase rate of fluorescence intensity was maximized by using the analysis software Protein Thermal Shift software (Thermo Fisher Scientific). The Tm value for a well with no compound was subtracted from the Tm value for each test compound to calculate the Tm shift caused by the compound as ΔTm (° C.).

In the next experiment the target is Human STING (Homo sapiens, UniProt Q86WV6, G230A/H232R/R293Q/R71H). Kind of experiment: Reporter gene assay, human STING agonist activity, THP1-Dual cells (HAQ-mutated), IRF pathway. The following applies: THP1-Dual cells IRF EC50, THP1-Dual cells (HAQ-mutated), 24 hours; 100% = maximum count with ML-RR-CDA·2Na+. For orientation: A reporter such as luciferase makes a cellular process visible.

The term ΔTm denotes the shift of the melting midpoint relative to a reference. The EC50 is the concentration needed to bring the measured effect to its halfway point. The low end stands for greater potency, the high end for weaker potency.

T4 sequence (Q3TBT3 with tags, fused parts or gaps limits assumed): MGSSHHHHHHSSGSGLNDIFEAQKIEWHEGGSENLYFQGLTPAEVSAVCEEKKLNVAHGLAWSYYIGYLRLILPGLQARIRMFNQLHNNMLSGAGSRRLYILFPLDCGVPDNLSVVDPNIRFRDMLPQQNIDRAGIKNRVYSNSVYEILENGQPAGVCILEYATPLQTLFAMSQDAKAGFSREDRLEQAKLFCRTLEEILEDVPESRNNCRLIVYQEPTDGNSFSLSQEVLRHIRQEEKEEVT
T1 sequence (Q86WV6 with tags, fused parts or gaps H232R): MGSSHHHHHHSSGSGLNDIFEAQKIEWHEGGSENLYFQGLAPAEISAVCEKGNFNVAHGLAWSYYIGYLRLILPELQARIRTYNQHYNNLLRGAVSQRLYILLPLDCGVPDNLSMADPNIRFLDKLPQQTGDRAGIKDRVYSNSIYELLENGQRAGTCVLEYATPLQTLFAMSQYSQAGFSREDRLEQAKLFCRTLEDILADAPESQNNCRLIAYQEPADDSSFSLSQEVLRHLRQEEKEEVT
T2 sequence (Q86WV6 with tags, fused parts or gaps, change not shown): as the sequence (Q86WV6 with tags, fused parts or gaps H232R) above, with R133H counted along it
Human STING, sequence (Q86WV6 whole entry R71H/G230A/H232R/R293Q): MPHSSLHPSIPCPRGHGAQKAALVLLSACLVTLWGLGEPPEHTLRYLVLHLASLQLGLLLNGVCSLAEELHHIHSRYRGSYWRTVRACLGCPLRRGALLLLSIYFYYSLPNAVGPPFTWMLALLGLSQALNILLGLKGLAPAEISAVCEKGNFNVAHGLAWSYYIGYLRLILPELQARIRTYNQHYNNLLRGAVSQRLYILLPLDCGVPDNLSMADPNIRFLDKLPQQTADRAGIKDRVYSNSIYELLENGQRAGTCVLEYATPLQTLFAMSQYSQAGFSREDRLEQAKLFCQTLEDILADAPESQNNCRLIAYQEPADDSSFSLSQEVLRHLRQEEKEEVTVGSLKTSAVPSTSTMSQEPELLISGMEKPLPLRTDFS
T3 sequence (Q86WV6 with tags, fused parts or gaps G230A/H232R/R293Q): as the sequence (Q86WV6 with tags, fused parts or gaps H232R) above, with G131A, R194Q counted along it
Protocol for Human STING: Human STING agonist activity was evaluated by using THP1-Dual™ cells (HAQ-mutated) (InvivoGen, CA, US), with which the activation of the pathway of interferon regulatory factor-3 (IRF3), which is present in the downstream of the STING pathway, can be confirmed.
Assay was performed as follows. First, a test compound diluted with PBS was aliquoted into a transparent 96-well plate (Corning Incorporated, NY, US) at 20 μL/well. Subsequently, reporter cells suspended in assay buffer (an RPMI1640 medium or DMEM medium containing 10% bovine serum albumin) were added at 180 μL/well (1×10^5 cells/well) to initiate stimulation. After the cells were cultured in an environment at 37° C. and 5% CO2 for 24 hours, the resultant was centrifuged to collect the supernatant. To a white 384-well plate, 6 μL of the supernatant collected was added, and 15 μL of QUANTI-Luc (InvivoGen) solution was added thereto. After the resultant was well mixed together, emission was measured by using a plate reader (PerkinElmer, Inc., MA, US).

`O=c1c2ncn([C@@H]3O[C@@H]4COP(=O)(S)O[C@H]5[C@@H](O)[C@H](n6cc7c8c(ncnc86)NCCC7)O[C@@H]5COP(=O)(S)O[C@@H]3[C@@H]4F)c2ncn1CCO` (single isomer, unassigned) [39a]: the thermal shift (ΔTm) at 500 µM stood at 10.4 °C in experiment [1], 5.7 °C in experiment [2], 12.9 °C in experiment [3] and 15 °C in experiment [4]. Further, at Human STING, the EC50 came to 190 nM.
On to `NCCNc1nc(N)c2ncn([C@@H]3O[C@@H]4COP(=O)(S)O[C@H]5[C@@H](O)[C@H](n6cc7c8c(ncnc86)NCCC7)O[C@@H]5COP(=O)(S)O[C@@H]3[C@@H]4F)c2n1` (single isomer, unassigned) [42a], for which the ΔTm at 500 µM in experiment [1] came out at 6.5 °C; in experiment [2], 2.8 °C; in experiment [3] it was 9 °C; in experiment [4], 11.2 °C. For the same compound, the EC50 on Human STING turned out to be 4200 nM.
As for `NCCNc1nc(N)c2ncn([C@@H]3O[C@@H]4COP(=O)(S)O[C@H]5[C@@H](O)[C@H](n6cc7c8c(ncnc86)NCCC7)O[C@@H]5COP(=O)(S)O[C@@H]3[C@@H]4F)c2n1` (single isomer, unassigned) [42b], the “ΔTm Hu-WT” value in experiment [1] came out at 5.3 °C. Besides, the “ΔTm Hu-REF” value in experiment [2] worked out at 1.4 °C. For the same compound, the “ΔTm Hu-AQ” value in experiment [3] stood at 7.4 °C. Also, in experiment [4], the “ΔTm Ms-WT” value came out at 10.6 °C. For the same compound, a half-maximal response on Human STING (EC50) required 4700 nM.
Regarding `O=c1c2ncn([C@@H]3O[C@@H]4COP(=O)(S)O[C@H]5[C@@H](F)[C@H](n6cc7c8c(ncnc86)NCCC7)O[C@@H]5COP(=O)(S)O[C@@H]3[C@@H]4F)c2ncn1CCO` (single isomer, unassigned) [44a], the ΔTm at 500 µM came to 13.4 °C in experiment [1], 8.7 °C in experiment [2], 18.2 °C in experiment [3] and 19.3 °C in experiment [4]. The same compound showed an EC50 at Human STING of 210 nM.
Consider `NCCNc1nc(N)c2ncn([C@@H]3O[C@@H]4COP(=O)(S)O[C@H]5[C@@H](F)[C@H](n6cc7c8c(ncnc86)NCCC7)O[C@@H]5COP(=O)(S)O[C@@H]3[C@@H]4F)c2n1` (single isomer, unassigned) [45a], for which the ΔTm at 500 µM in experiment [1] turned out to be 8.9 °C; in experiment [2], 4.4 °C; in experiment [3], 10.8 °C; in experiment [4] it was 12.3 °C. This compound had an EC50 on Human STING of 1200 nM.
For the compound `NCCNc1nc(N)c2ncn([C@@H]3O[C@@H]4COP(=O)(S)O[C@H]5[C@@H](F)[C@H](n6cc7c8c(ncnc86)NCCC7)O[C@@H]5COP(=O)(S)O[C@@H]3[C@@H]4F)c2n1` (single isomer, unassigned) [45b], in experiment [1], the “ΔTm Hu-WT” value turned out to be 7.5 °C. Also, the “ΔTm Hu-REF” value in experiment [2] turned out to be 3.1 °C. Also, the “ΔTm Hu-AQ” value in experiment [3] turned out to be 9.1 °C. Besides, in experiment [4], the “ΔTm Ms-WT” value came to 12.1 °C. Moreover, at Human STING, the EC50 came out at 3100 nM.
Consider `O=c1c2ncn([C@@H]3O[C@@H]4COP(=O)(S)O[C@H]5[C@@H](F)[C@H](n6cc7c8c(ncnc86)SCCC7)O[C@@H]5COP(=O)(S)O[C@@H]3[C@@H]4O)c2ncn1CCO` (single isomer, unassigned) [48a], for which the ΔTm at 500 µM is 15.9 °C in experiment [1], 9.3 °C in experiment [2], 22.2 °C in experiment [3] and 16 °C in experiment [4]. The compound further came in with an EC50 at Human STING of 35 nM.
Take `NCCn1cnc2c(ncn2[C@@H]2O[C@@H]3COP(=O)(S)O[C@H]4[C@@H](F)[C@H](n5cc6c7c(ncnc75)SCCC6)O[C@@H]4COP(=O)(S)O[C@@H]2[C@@H]3O)c1=O` (single isomer, unassigned) [49b]: the ΔTm at 500 µM in experiment [1] turned out to be 12.6 °C; in experiment [2] it was 6.6 °C; in experiment [3] it was 16.1 °C; in experiment [4] it was 19.3 °C. This compound showed an EC50 on Human STING of 410 nM.
As to `O=C(CO)NCCn1cnc2c(ncn2[C@@H]2O[C@@H]3COP(=O)(S)O[C@H]4[C@@H](F)[C@H](n5cc6c7c(ncnc75)SCCC6)O[C@@H]4COP(=O)(S)O[C@@H]2[C@@H]3O)c1=O` (single isomer, unassigned) [50a], the ΔTm at 500 µM was 12.3 °C in experiment [1], 6.5 °C in experiment [2], 15.6 °C in experiment [3] and 13 °C in experiment [4]. The compound also had an EC50 on Human STING of 340 nM.
